Experimental data from PubChem BioAssay AID493240 (Broad Institute, 2011).

System: SK-MEL-5 viability, ATP luminescence (CellTiter-Glo), 24 h
Assay: cytotoxicity in parental SK-MEL-5 melanoma cells – cell-based, CellTiter-Glo, cherry-picked, set 3, orthogonal assay for MITF inhibitor project, dose response (AID 493240)

SMILES	AC50
CN(C)CCCN(C(=O)CCc1ccccc1)c1nc2ccc(Br)cc2s1	16.5 µM
CN(C)c1ccc(C2=NOC(CN3C(=O)c4ccccc4S3(=O)=O)C2)cc1 (stereo unspecified)	< 0.015 µM
O=C(Nc1ccc(S(=O)(=O)NC2=NCCCCC2)cc1)c1ccc([N+](=O)[O-])s1	23 µM
Cc1c(OCC(=O)NC2CC(C)(C)NC(C)(C)C2)ccc2c1oc(=O)c1ccccc12	23.2 µM
CCN1CCCC1CNC(=O)c1ccc2c(c1)NC(=O)/C(=C\c1ccc(C)cc1)S2 (stereo unspecified)	18.7 µM
Cc1oc(-c2ccc(Cl)cc2)nc1CN1CCC(C(=O)NCCCN2CCCC(C)C2)CC1 (stereo unspecified)	17.1 µM
COc1ccc(-c2nn(-c3ccccc3)cc2/C=N/N=C(N)N)cc1OC	18 µM
CCOC(=O)c1ccc(NC2=CC(=O)C(=O)c3ccccc32)cc1	14.3 µM
Cc1ccc(-c2cn(-c3ccc(SC(F)F)cc3)c3[n+]2CCC3)cc1	28 µM
CS(=O)(=O)c1ccc(S(=O)CC(=O)OCc2ccccc2)c([N+](=O)[O-])c1 (stereo unspecified)	28.3 µM
O=C1Nc2ccc(Br)cc2/C1=C/C(=O)c1ccc2c(c1)OCO2	32.6 µM
Cc1ccc(C(=O)N/N=C/c2ccc([N+](=O)[O-])s2)cc1	26.7 µM
O=C(N/N=C\c1ccc([N+](=O)[O-])s1)c1cncc(Br)c1	21 µM
O=C1/C(=C/c2ccccc2[N+](=O)[O-])COc2ccccc21	34.1 µM
N=c1n(CC(=O)c2ccc(Br)cc2)c2ccccc2n1Cc1ccccc1	18.1 µM
CCOC(=O)c1c(C)oc2c(F)c(F)c(F)c(F)c2c1=O	22.7 µM
O=[N+]([O-])c1ccc(S(=O)(=O)CC(CN2CCCCC2)N2CCCCC2)cc1 (stereo unspecified)	29.8 µM
Cc1ccc(Oc2c(C(N)=O)cc([N+](=O)[O-])cc2[N+](=O)[O-])cc1	21.8 µM
N#C/C(=C(/O)c1ccc([N+](=O)[O-])o1)c1nc2ccccc2[nH]1	16.3 µM
CC(C)(C)c1ccc(-c2cn(-c3ccc(Br)cc3)c3[n+]2CCCS3)cc1	11.4 µM
O=C(NCC1CCCCC1)C1(CC2CC(c3cccc(Br)c3)=NO2)CCNCC1 (stereo unspecified)	18 µM
CC(=O)c1c(C)oc2c1C(=O)c1ccccc1C2=O	7.62 µM
Cc1ccc(C(C)C)c(OCc2nn(CC(=O)c3ccc(Cl)cc3)c3[n+]2CCCCC3)c1	18.4 µM

SMILES	AC50
CC1=CC2/C=C(\C)CCC(O)C(O)/C=C/C(=O)C23C(=O)NC(CC(C)C)C3C1C (stereo unspecified)	15.9 µM
CCOc1c(Br)cc(CNC2CCCCCCC2)cc1OC	16.5 µM
CCN1/C(=C/c2cc[n+](C)cc2)C=Cc2cc(C)ccc21	25.7 µM
O=C(N/N=C/c1cccc2cccnc12)c1ccccc1O	32.9 µM
CC1=NNC(=O)/C1=C\c1cn(-c2ccccc2)nc1-c1ccc(F)cc1	15.5 µM
CC1CCC/C=C/C(=O)c2c(O)cc(O)cc2CC(=O)O1 (stereo unspecified)	31.7 µM
Cc1cc(C)c2nc(N3CCC(C(=O)NCCCN4CC(C)CC(C)C4)CC3)sc2c1 (stereo unspecified)	18.3 µM
O=C(N/N=C/c1ccc(O)c2ncccc12)c1cccc(Br)c1	25.7 µM
CCN(CC)CCNC(=O)c1ccc(NC(=O)c2cn(-c3ccccc3)nc2-c2cccs2)cc1	19.9 µM
CCOC(=O)c1ccc2c(c1)n(CC)c(/C=C/N(C)c1ccccc1)[n+]2CC	13.3 µM
Cn1cccc1C(=O)NC(=O)COC(=O)c1ccc(S(C)(=O)=O)c([N+](=O)[O-])c1	31.4 µM
CCOC(=O)CSC1=NC(=O)/C(=C/c2ccc(OC)cc2)S1	28.5 µM
COc1ccccc1NS(=O)(=O)c1cc(NC(=O)c2ccc(Cl)nc2)ccc1Cl	24.3 µM
Cc1c(N=C2C=CC(=O)c3ccccc32)c(=O)n(-c2ccccc2)n1C	30.9 µM
CN(C)CCNC(=O)/C(=C/c1ccc(-c2ccc(Cl)cc2)o1)NC(=O)c1ccccc1	20.4 µM
CN(C)CCCNc1nc2sc3c(c2c(=O)n1CCc1ccccc1)CCCCC3	19.8 µM
COc1cc(SC)ccc1C(=O)Nc1nc(C)cs1	28.4 µM
CCCCN1CCc2c1nc1ccc(Br)cc1c2N	25.6 µM
CCN1CCN(c2ccc(NC(=O)c3ccc([N+](=O)[O-])o3)cc2Cl)CC1	24.8 µM
CCCCn1c(=N)n(CCOc2ccc(C)cc2)c2ccccc21	17.6 µM
CC(=O)Nc1ccc(Nc2c3ccccc3nc3ccccc23)cc1	16.6 µM
CCCN1CCC(NCc2cn(C)nc2-c2ccc(Oc3ccccc3)cc2)CC1	22.3 µM
CCC(C)(C)c1ccc(OCCCC[n+]2ccccc2)c(C(C)(C)CC)c1	15.3 µM

SMILES	AC50
CN(C)CCCNC(=O)/C(=C\c1ccc(-c2ccc(Br)cc2)o1)NC(=O)c1ccccc1	16.7 µM
CC(C)=NOc1cc(NC(=O)CCl)cc([N+](=O)[O-])c1	17.4 µM
CC(C)Oc1ccc(C(CCN)C2CCCCC2)cc1 (stereo unspecified)	16.2 µM
Cc1ccc(NC2=C(Cl)C(=O)c3ccccc3C2=O)cc1	9.83 µM
CCS(=O)(=O)c1ccc(N=Nc2ccc(O)c3ncccc23)c(OC)c1	33.5 µM
COC(=O)C1=C(C)N(Cc2ccccc2)C(=NCCc2cccnc2)N[C@H]1c1ccc(Br)cc1	19.2 µM
CC1CN(C(=O)CCC(=O)NCCCN2CCC(Cc3ccccc3)CC2)c2cc(Cl)ccc2O1 (stereo unspecified)	6.98 µM
COc1cccc(CNCCc2c[nH]c3ccccc23)c1OCc1ccccc1	16.8 µM
COc1ccccc1NS(=O)(=O)c1cccc(C(=O)N/N=C/c2ccc([N+](=O)[O-])o2)c1	17.3 µM
O=c1c(Cl)c2oc3ccccc3nc-2c2ccccc12	5.67 µM
Cc1ccc(-c2nnc(SCC(=O)Nc3ccccc3F)o2)cc1	21.7 µM
CCOc1ccc(-n2c(-c3ccc(OC)cc3)c[n+]3c2CCCCC3)cc1	19.6 µM
COc1ccc(CCn2c(=S)[nH]c3cc(C(=O)NCc4ccco4)ccc3c2=O)cc1OC	22.8 µM
O=C(Nc1ccc(Cl)c(S(=O)(=O)N2CCOCC2)c1)c1ccc(OCC2CCCO2)cc1 (stereo unspecified)	9.27 µM
O=C(CCl)N(c1ccccc1)C1CCCCC1	32.3 µM
CC(C)(C)c1ccc(Cn2c(=N)n(CC(O)c3ccco3)c3ccccc32)cc1 (stereo unspecified)	19.9 µM
COC(=O)C1=C(C)N(Cc2ccccc2)C(=NCc2ccccc2)N[C@H]1c1ccccc1	26.8 µM
COc1ccc2oc(C(=O)Nc3ccc(S(=O)(=O)N(C)C4CCN(C)CC4)cc3)c(C)c2c1	17.5 µM
CC(C)Oc1ccc(C(CCNCc2ccc(O)cc2)c2ccccc2)cc1 (stereo unspecified)	16.5 µM
C=CCNC1=C(Cl)C(=O)c2ccccc2C1=O	7.68 µM
Cc1ccc(C)c(NC(=O)/C(C#N)=C/c2cn(CC(=O)NCc3ccco3)c3ccccc23)c1	15.2 µM
CC(C)C(CCNC1CCN(C)CC1)c1ccc(Cl)cc1 (stereo unspecified)	23.1 µM
Cc1cc(C(C)(C)C)cc(C)c1Cn1c2[n+](c3ccc(C(F)(F)F)cc31)CCCCC2	16 µM

SMILES	AC50
CCOC(=O)c1c(C)oc2c1C(=O)c1ccccc1C2=O	3.37 µM
CCOc1cc(/C=N/N=C(N)N)ccc1OCc1ccc(Cl)cc1	19.2 µM
COC1=C(c2ccccc2)C(=O)c2ccccc2C1=O	9.91 µM
CCc1cc[n+](C2=C([O-])c3ccccc3C(=O)/C2=N\S(=O)(=O)c2cccs2)cc1	5.72 µM
COc1ccc(C(=O)/C(C#N)=N/Nc2ccc([N+](=O)[O-])cc2)cc1	18.5 µM
CS(=O)(=O)c1ccc(C(=O)OCC(=O)NCc2cccs2)cc1[N+](=O)[O-]	29.7 µM
C(#Cc1ccccc1)C[N+]1(CC#Cc2cccc3ccccc23)CCCC1	17.9 µM
O=C(CCl)Nc1cccc(S(=O)(=O)N2CCCCCC2)c1	11.2 µM
CC1CCC(C(C)C)C(OC(=O)Cn2c(-c3ccc(F)cc3)[n+](C)c3ccccc32)C1 (stereo unspecified)	8.02 µM
O=C(Cn1ncc(Cl)c(Cl)c1=O)N1CCc2ccccc21	22.6 µM
O=[N+]([O-])c1cccc2c(N3CCCC3)ccnc12	15.3 µM
O=C(Nc1ccc(N2CCN(C(=O)c3ccccc3)CC2)cc1)c1ccc([N+](=O)[O-])o1	28.3 µM
COc1cccc2c1C(=O)C=C(C)C2=O	18.8 µM
CC1(C)Cc2ccccc2C2=NNC(=O)C2=N1	8.54 µM
CCNC1=C(Cl)C(=O)c2ccccc2C1=O	9.44 µM
Nc1nc2ccccc2n1/N=C/c1ccc([N+](=O)[O-])s1	25.8 µM
O=C(CCl)Nc1cccc(-c2cnc3ccccc3n2)c1	17.3 µM
O=C(O)/C=C/C(=O)c1ccc2c(c1)CCc1ccccc1-2	30.5 µM
COc1ccc(C(=O)/C=C/C(=O)N(CC(=O)NC2CCCCC2)Cc2cccs2)c(O)c1	20.5 µM
Cc1ccc2c(c1)Oc1ccc(NC(=O)CCl)cc1C(=O)N2	9.65 µM
COc1ccc(Br)cc1/C=C/C(=O)c1ccc(NC(C)=O)cc1	26.7 µM
COCCN(CC(=O)NC1CCCCC1)C(=O)/C=C/C(=O)c1ccc(OC)cc1O	10.5 µM
COC1=C(Nc2ccc(O)cc2)C(=O)c2ccccc2C1=O	8.43 µM

SMILES	AC50
CC(=O)Nc1sc(C)c(C)c1C(=O)OCC(=O)N(CC(C)C)c1c(N)n(Cc2ccccc2)c(=O)[nH]c1=O	8.38 µM
COc1cc(NC(=O)c2ccc([N+](=O)[O-])o2)ccc1NC(=O)c1cccs1	20.1 µM
COc1ccc2[nH]cc(C(=O)CCl)c2c1	17.4 µM
COc1cc2c(cc1OC)C(c1ccccc1)N(C(=O)CCl)CC2 (stereo unspecified)	22.6 µM
O=C1C(Cl)=C(N2CCN(c3ccccc3[N+](=O)[O-])CC2)C(=O)c2ccccc21	10.8 µM
COc1cccc(/C=N/Nc2ccc(C(=O)O)cc2)c1O	19.9 µM
CC(C)(C)c1ccc(OCCn2ccccc2=O)cc1	28.7 µM
N#CCc1ccc(NC(=O)/C=C/c2ccc([N+](=O)[O-])o2)cc1	31.2 µM
COc1ccc(-c2cc(-c3ccccc3)[n+](C)c(-c3ccccc3)c2)cc1	21.2 µM
Cc1ccc(S(=O)(=O)/N=C2\C(=O)c3ccccc3C([O-])=C2n2cc[n+](CCC(C)C)c2)cc1	15.6 µM
Cc1ccc(-n2cc(CNCCCn3cccn3)c(-c3cccc(C)c3)n2)cc1	20.1 µM
Cc1cc(C)cc(NC(=O)c2ccc([N+](=O)[O-])o2)c1	27.7 µM
O=C(Nc1ccc(N2CCCC2)c(Cl)c1)c1ccc([N+](=O)[O-])o1	29.9 µM
CCN1CCN(C2=C(NS(=O)(=O)c3ccc(Br)cc3)C(=O)c3ccccc3C2=O)CC1	22.9 µM
Cc1cc2oc3ccc(NCCC4CCCN4C)cc3c(=O)c2cc1C (stereo unspecified)	17.6 µM
O=C(/C=C/c1cccc([N+](=O)[O-])c1)c1cccs1	27.8 µM
CN(C)S(=O)(=O)c1ccc(-c2csc(N/N=C/c3ccco3)n2)cc1	16.2 µM
O=C(CCl)N1c2ccccc2SCC1c1ccccc1 (stereo unspecified)	21.3 µM
CCCCN(CC)CCCNC(=O)c1cc2c(=O)n(CC)c3ccccc3c2s1	23.2 µM
